Assay results reported in patent publication US9725554B2, “Dendritic polyurea for solubilizing active substances of low solubility” (BASF SE, priority 2009, dated 2017).

Columns and labels:
physchem = details: pH 7, aqueous buffer, thermodynamic from solid
Procedure: Then 0.2 g of each active ingredient was weighed into the batch to give a supersaturated solution. […] The mixture was then stirred at room temperature for 72 hours, using a magnetic stirrer. After a rest time of one hour, unsolubilized active ingredient was removed by filtration. The resulting clear or opaque solution was then analyzed for its active ingredient content by means of UV spectroscopy or HPLC.

[1] = Procedure: Then 100 mg of each active ingredient was weighed into the batch to give a supersaturated solution. The mixture was then stirred at room temperature for 24 hours, using a magnetic stirrer. After a rest time of one hour, unsolubilized active ingredient was removed by centrifuging. The resulting clear or opaque solution was then analyzed for its active ingredient content by means of UV spectroscopy.
The solubility was determined as described in procedure 2.

solubility at 72 h (physchem) | Solubility of Fipronil in the presence of polymer [1] | Compound
< 100 µg/mL | – | Clc1ccccc1C(c1ccccc1)(c1ccccc1)n1ccnc1 [Clotrimazole]
– | 6 µg/mL | polyethylene glycol monomethyl ether [PEG monomethyl ether]
